Measurements: ChEMBL document CHEMBL1130616, “Synthesis and biological activity of glutamic acid derivatives” (Bioorg Med Chem Lett, 1998)
pEC50: −log10 of the molar value.

What was measured:
Format in all cases: functional
[1] = organism: Rattus norvegicus; assay: Effective concentration by measuring IP1 accumulation using rat fore brain synaptoneurosomes
[2] = organism: Rattus norvegicus; assay: Emax by measuring IP2 accumulation using rat fore brain synaptoneurosomes
[3] = organism: Rattus norvegicus; assay: Effective concentration by measuring IP2 accumulation using rat fore brain synaptoneurosomes
[4] = organism: Rattus norvegicus; assay: Emax by measuring IP1 accumulation using rat fore brain synaptoneurosomes

SMILES	pEC50 [1]	Emax [2]	pEC50 [3]	Emax [4]
N[C@@]1(C(=O)O)CC[C@@H](C(=O)O)C1	4.77	700%	4.42	284%
N[C@@H](CC(C=O)CCCCN1C(=O)c2ccccc2C1=O)C(=O)O.N[C@@]1(C(=O)O)CC[C@@H](C(=O)O)C1 (some centres undefined)	4.43	543%	4.10	264%
N[C@@H](CC(C=O)CCCCN1C(=O)c2ccccc2C1=O)C(=O)O.N[C@@H](Cn1oc(=O)[nH]c1=O)C(=O)O (some centres undefined)	6.85	359%	6.57	216%
N[C@@H](Cn1oc(=O)[nH]c1=O)C(=O)O [QUISQUALATE]	7.00	524%	6.49	240%
C[C@@](N)(C(=O)O)c1ccc(C(=O)O)cc1.N[C@@]1(C(=O)O)CC[C@@H](C(=O)O)C1	3.96	643%	3.65	269%
C[C@@](N)(C(=O)O)c1ccc(C(=O)O)cc1.N[C@@H](Cn1oc(=O)[nH]c1=O)C(=O)O	6.20	358%	5.87	225%
